Assays:
Test in all cases: ChaCha beta-arrestin/TEV-release GFP reporter in HEK293T cells
Format in all cases: cell-based
[1] = target: T1, kappa opioid receptor DREADD (KORD) (Homo sapiens, UniProt P41145, D138N)
T1 construct: gene OPRK1; KORD-V2-TEVp; with ARRB2 (ARRB2-TCS-dCas9-VPR)

TRHR = target: T2, TRHR (Homo sapiens, UniProt P34981)
T2 construct: TRHR-V2-TEVp; with ARRB2 (ARRB2-TCS-dCas9-VPR)

LPAR1 = target: T3, LPAR1 (Homo sapiens, UniProt Q92633)
T3 construct: LPAR1-V2-TEVp; with ARRB2 (ARRB2-TCS-dCas9-VPR)
T3 sequence (Q92633 whole entry): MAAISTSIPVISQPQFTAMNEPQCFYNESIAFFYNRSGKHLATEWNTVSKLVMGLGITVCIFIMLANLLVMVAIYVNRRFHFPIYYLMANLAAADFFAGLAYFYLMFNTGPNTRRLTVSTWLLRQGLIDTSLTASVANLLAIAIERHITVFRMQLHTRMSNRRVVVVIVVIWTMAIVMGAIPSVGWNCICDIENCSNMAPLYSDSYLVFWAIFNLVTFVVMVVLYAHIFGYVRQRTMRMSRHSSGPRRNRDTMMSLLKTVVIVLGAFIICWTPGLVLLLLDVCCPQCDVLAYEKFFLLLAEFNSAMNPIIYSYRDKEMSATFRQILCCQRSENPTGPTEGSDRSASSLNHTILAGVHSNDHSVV
T3 sequence (P32121 whole entry partner): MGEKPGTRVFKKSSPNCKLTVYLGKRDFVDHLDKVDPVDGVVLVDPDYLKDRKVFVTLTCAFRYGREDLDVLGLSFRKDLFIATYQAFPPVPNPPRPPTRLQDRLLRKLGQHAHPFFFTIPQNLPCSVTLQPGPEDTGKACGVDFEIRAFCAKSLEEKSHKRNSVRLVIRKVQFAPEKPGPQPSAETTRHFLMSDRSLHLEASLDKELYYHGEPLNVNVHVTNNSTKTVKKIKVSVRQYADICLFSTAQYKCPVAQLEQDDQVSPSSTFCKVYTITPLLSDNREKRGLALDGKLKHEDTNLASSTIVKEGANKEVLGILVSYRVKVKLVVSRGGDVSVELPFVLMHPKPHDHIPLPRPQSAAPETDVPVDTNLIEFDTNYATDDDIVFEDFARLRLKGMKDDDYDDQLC

T1 sequence (P41145 whole entry D138N): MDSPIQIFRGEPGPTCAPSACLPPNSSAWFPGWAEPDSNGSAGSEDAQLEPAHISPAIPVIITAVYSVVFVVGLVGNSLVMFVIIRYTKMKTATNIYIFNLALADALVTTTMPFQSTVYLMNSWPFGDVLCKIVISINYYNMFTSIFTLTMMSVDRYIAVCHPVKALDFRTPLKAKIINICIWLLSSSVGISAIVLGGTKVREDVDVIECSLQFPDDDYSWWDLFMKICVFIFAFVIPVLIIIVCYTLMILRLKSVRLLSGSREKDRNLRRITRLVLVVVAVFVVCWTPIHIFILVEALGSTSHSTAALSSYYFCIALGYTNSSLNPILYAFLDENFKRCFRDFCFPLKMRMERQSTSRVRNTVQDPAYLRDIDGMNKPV
T1 sequence (P32121 whole entry, further chain): as the sequence (P32121 whole entry partner) above
T2 sequence (P34981 whole entry): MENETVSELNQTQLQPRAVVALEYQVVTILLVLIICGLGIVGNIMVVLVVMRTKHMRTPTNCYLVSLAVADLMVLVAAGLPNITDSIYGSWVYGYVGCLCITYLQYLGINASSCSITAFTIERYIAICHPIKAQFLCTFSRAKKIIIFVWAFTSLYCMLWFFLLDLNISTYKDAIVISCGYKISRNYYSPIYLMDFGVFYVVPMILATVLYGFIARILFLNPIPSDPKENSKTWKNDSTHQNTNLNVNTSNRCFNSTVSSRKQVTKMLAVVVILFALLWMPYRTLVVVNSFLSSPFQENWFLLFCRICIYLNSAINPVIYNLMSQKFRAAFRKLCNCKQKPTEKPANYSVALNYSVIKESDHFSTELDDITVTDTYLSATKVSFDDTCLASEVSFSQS
T2 sequence (P32121 whole entry partner): as the sequence (P32121 whole entry partner) above

**Q.** Which “ChaCha beta-arrestin/TEV-release GFP reporter in HEK293T cells” value [1] does the source give for `COC(=O)[C@@H]1C[C@H](O)C(=O)[C@H]2[C@@]1(C)CC[C@H]1C(=O)O[C@H](c3ccoc3)C[C@]21C` [Salvinorin B] here?
**A.** another evolved GPCR, the kappa opioid receptor DREADD (KORD), which senses Salvinorin B

**Q.** `NC(=O)[C@@H]1CCCN1C(=O)[C@H](Cc1cnc[nH]1)NC(=O)[C@@H]1CCC(=O)N1` [thyrotropin-releasing hormone] was tested. Which “ChaCha beta-arrestin/TEV-release GFP reporter in HEK293T cells” value (TRHR) did it give?
**A.** TRHR, which senses thyrotropin-releasing hormone

**Q.** How did the “ChaCha beta-arrestin/TEV-release GFP reporter in HEK293T cells” value (LPAR1) turn out when `CCCCCCCC/C=C\CCCCCCCC(=O)OC[C@@H](O)COP(=O)(O)O` [lysophosphatidic acid] was run?
**A.** LPAR1, which senses the fatty acid lysophosphatidic acid

— article PMC5738360, “Engineering cell sensing and responses using a GPCR-coupled CRISPR-Cas system” (Nature Communications, 2017)
